Assay: mn = molality of the nth substance listed, in mol/kg
Settings: Liquid, Vibrating tube method

[Cl-].[Li+] [lithium chloride] + CCO
Settings | mass density [kg/m3]
348.15 K, 20090 kPa, m1 = 0.3023 | 772.2
348.15 K, 20140 kPa, m1 = 1.222 | 800.25
348.15 K, 20480 kPa, m1 = 0.5873 | 781.78
348.15 K, 25070 kPa, m1 = 1.222 | 804.33
348.15 K, 25320 kPa, m1 = 0.5873 | 786.04
348.15 K, 25420 kPa, m1 = 2.022 | 826.11
348.15 K, 25640 kPa, m1 = 2.88 | 846.96
348.15 K, 25840 kPa, m1 = 0.1049 | 770.86
348.15 K, 25860 kPa, m1 = 0.3023 | 777.45
348.15 K, 30060 kPa, m1 = 0.3023 | 781.03
348.15 K, 30160 kPa, m1 = 2.022 | 829.46
348.15 K, 30410 kPa, m1 = 1.222 | 808.41
348.15 K, 30610 kPa, m1 = 0.5873 | 790.37
348.15 K, 30710 kPa, m1 = 0.1049 | 775.12
348.15 K, 30840 kPa, m1 = 2.88 | 850.58
348.15 K, 35190 kPa, m1 = 2.88 | 853.39
348.15 K, 35240 kPa, m1 = 0.1049 | 778.84
348.15 K, 35420 kPa, m1 = 1.222 | 811.91
348.15 K, 35610 kPa, m1 = 2.022 | 832.94
348.15 K, 35840 kPa, m1 = 0.3023 | 785.62
348.15 K, 35840 kPa, m1 = 0.5873 | 794.33
348.15 K, 39860 kPa, m1 = 0.5873 | 797.14
348.15 K, 39860 kPa, m1 = 2.88 | 856.19
348.15 K, 39930 kPa, m1 = 0.1049 | 782.45
348.15 K, 39940 kPa, m1 = 0.3023 | 788.64
348.15 K, 39960 kPa, m1 = 2.022 | 835.44
348.15 K, 39970 kPa, m1 = 1.222 | 814.81
373.15 K, 290 kPa, m1 = 0.1049 | 717.74
373.15 K, 310 kPa, m1 = 0.3023 | 725.29
373.15 K, 320 kPa, m1 = 2.022 | 781.71
373.15 K, 840 kPa, m1 = 1.222 | 757.56
373.15 K, 960 kPa, m1 = 0.5873 | 736.55
373.15 K, 980 kPa, m1 = 2.88 | 805.91
373.15 K, 5060 kPa, m1 = 0.3023 | 731.82
373.15 K, 5060 kPa, m1 = 1.222 | 762.98
373.15 K, 5140 kPa, m1 = 0.1049 | 724.52
373.15 K, 5140 kPa, m1 = 2.88 | 810.39
373.15 K, 5420 kPa, m1 = 0.5873 | 742.51
373.15 K, 5860 kPa, m1 = 2.022 | 788.43
373.15 K, 9980 kPa, m1 = 2.88 | 815.52
373.15 K, 10060 kPa, m1 = 1.222 | 769.02
373.15 K, 10070 kPa, m1 = 0.3023 | 738.32
373.15 K, 10080 kPa, m1 = 0.1049 | 731.05
373.15 K, 10090 kPa, m1 = 0.5873 | 748.41
373.15 K, 10090 kPa, m1 = 2.022 | 793.18
373.15 K, 14620 kPa, m1 = 2.88 | 819.69
373.15 K, 15020 kPa, m1 = 0.3023 | 744.36
373.15 K, 15420 kPa, m1 = 0.1049 | 737.69
373.15 K, 15720 kPa, m1 = 2.022 | 799
373.15 K, 15740 kPa, m1 = 1.222 | 775.35
373.15 K, 15850 kPa, m1 = 0.5873 | 755.19
373.15 K, 20080 kPa, m1 = 0.1049 | 743.13
373.15 K, 20090 kPa, m1 = 0.5873 | 759.84
373.15 K, 20310 kPa, m1 = 0.3023 | 750.38
373.15 K, 20310 kPa, m1 = 2.022 | 803.31
373.15 K, 20340 kPa, m1 = 1.222 | 780.06
373.15 K, 21420 kPa, m1 = 2.88 | 825.53
373.15 K, 24940 kPa, m1 = 2.88 | 828.37
373.15 K, 25050 kPa, m1 = 2.022 | 807.37
373.15 K, 25080 kPa, m1 = 1.222 | 784.55
373.15 K, 25410 kPa, m1 = 0.1049 | 748.94
373.15 K, 25410 kPa, m1 = 0.3023 | 755.77
373.15 K, 25840 kPa, m1 = 0.5873 | 765.68
373.15 K, 30060 kPa, m1 = 0.3023 | 760.33
373.15 K, 30060 kPa, m1 = 2.022 | 811.2
373.15 K, 30150 kPa, m1 = 0.5873 | 769.7
373.15 K, 30150 kPa, m1 = 2.88 | 832.41
373.15 K, 30260 kPa, m1 = 0.1049 | 753.85
373.15 K, 30410 kPa, m1 = 1.222 | 789.12
373.15 K, 35160 kPa, m1 = 0.3023 | 764.94
373.15 K, 35410 kPa, m1 = 2.022 | 814.8
373.15 K, 35740 kPa, m1 = 2.88 | 836.3
373.15 K, 35840 kPa, m1 = 0.1049 | 759.05
373.15 K, 35840 kPa, m1 = 1.222 | 793.28
373.15 K, 35980 kPa, m1 = 0.5873 | 774.65
373.15 K, 39820 kPa, m1 = 1.222 | 796.01
373.15 K, 39910 kPa, m1 = 0.1049 | 762.54
373.15 K, 39960 kPa, m1 = 0.3023 | 768.9
373.15 K, 39970 kPa, m1 = 0.5873 | 777.73
373.15 K, 39970 kPa, m1 = 2.022 | 817.45
373.15 K, 39980 kPa, m1 = 2.88 | 839.22
398.15 K, 680 kPa, m1 = 0.3023 | 696.61
398.15 K, 740 kPa, m1 = 0.1049 | 688.68
398.15 K, 740 kPa, m1 = 2.022 | 758.72
398.15 K, 960 kPa, m1 = 1.222 | 731.58
398.15 K, 1010 kPa, m1 = 2.88 | 785.44
398.15 K, 1020 kPa, m1 = 0.5873 | 708.33
398.15 K, 4860 kPa, m1 = 1.222 | 737.73
398.15 K, 5010 kPa, m1 = 0.1049 | 695.99
398.15 K, 5030 kPa, m1 = 2.022 | 765.06
398.15 K, 5070 kPa, m1 = 0.3023 | 704.02
398.15 K, 5070 kPa, m1 = 2.88 | 790.37
398.15 K, 5740 kPa, m1 = 0.5873 | 716.08
398.15 K, 9680 kPa, m1 = 1.222 | 744.82
398.15 K, 10060 kPa, m1 = 0.3023 | 711.93
398.15 K, 10060 kPa, m1 = 0.5873 | 722.74
398.15 K, 10140 kPa, m1 = 2.88 | 796.07
398.15 K, 10420 kPa, m1 = 2.022 | 772.34
398.15 K, 10450 kPa, m1 = 0.1049 | 704.75
398.15 K, 15060 kPa, m1 = 1.222 | 752.07
398.15 K, 15060 kPa, m1 = 2.022 | 778
398.15 K, 15090 kPa, m1 = 0.3023 | 719.36
398.15 K, 15280 kPa, m1 = 2.88 | 801.31
398.15 K, 15420 kPa, m1 = 0.1049 | 712.2
398.15 K, 15960 kPa, m1 = 0.5873 | 731.15
398.15 K, 20010 kPa, m1 = 2.88 | 805.83
398.15 K, 20090 kPa, m1 = 0.1049 | 718.73
398.15 K, 20140 kPa, m1 = 0.3023 | 726.27
398.15 K, 20350 kPa, m1 = 0.5873 | 736.9
398.15 K, 20470 kPa, m1 = 1.222 | 758.65
398.15 K, 20740 kPa, m1 = 2.022 | 784.18
398.15 K, 25230 kPa, m1 = 0.3023 | 732.68
398.15 K, 25320 kPa, m1 = 2.88 | 810.7
398.15 K, 25420 kPa, m1 = 0.5873 | 742.99
398.15 K, 25610 kPa, m1 = 2.022 | 788.8
398.15 K, 25620 kPa, m1 = 1.222 | 764.26
398.15 K, 25840 kPa, m1 = 0.1049 | 726.13
398.15 K, 30050 kPa, m1 = 0.5873 | 748.05
398.15 K, 30070 kPa, m1 = 0.3023 | 738.24
398.15 K, 30070 kPa, m1 = 2.88 | 814.57
398.15 K, 30090 kPa, m1 = 2.022 | 792.51
398.15 K, 30150 kPa, m1 = 0.1049 | 731.22
398.15 K, 30410 kPa, m1 = 1.222 | 768.9
398.15 K, 34950 kPa, m1 = 0.5873 | 752.88
398.15 K, 34980 kPa, m1 = 2.88 | 818
398.15 K, 35240 kPa, m1 = 0.3023 | 743.62
398.15 K, 35810 kPa, m1 = 2.022 | 796.49
398.15 K, 35860 kPa, m1 = 0.1049 | 737.37
398.15 K, 35950 kPa, m1 = 1.222 | 773.57
398.15 K, 39860 kPa, m1 = 0.1049 | 741.26
398.15 K, 39920 kPa, m1 = 0.5873 | 757.22
398.15 K, 39940 kPa, m1 = 1.222 | 776.48
398.15 K, 39940 kPa, m1 = 2.022 | 798.83
398.15 K, 39970 kPa, m1 = 0.3023 | 748.04
398.15 K, 39980 kPa, m1 = 2.88 | 821.9

Source: the NIST ThermoML archive (doi:10.1021/je700438d)
